# Results taken from US5462744A, “Transdermal system for the administration of pharmacological compounds under pH-controlled conditions” (Boehringer Ingelheim KG, priority 1990, dated 1995).
# “And” between values parts separate entries of the source, which are not always exact repeats. Identical values can stand only once. “Also recorded” adds a separate entry of the source.
# Experiments:
# [1] = pH of the skin surface underneath the system after 5 days' wearing, surface pH electrode (FIG. 6); format: in vivo, human; settings: in the polymethacrylate matrix
# Excerpt: The systems tested differ in their concentration of citric acid in the polymethacrylate matrix. It is clear that only a citric acid concentration of more than 1% can bring about any significant change in the surface pH of the skin. The words "values 1, 2 and 3" in FIG. 7 refer to test subjects.
# [2] = Permeability of pH-modified clenbuterol CPA through human skin (Franz cell release apparatus); format: in vitro ADME
# Description: Permeability of pH-modified clenbuterol CPA through human skin:
# Composition of the CPA's:
# Polymethacrylate 90% 90%
# A Franz cell was used as the release apparatus. This is a conventional method of testing the release of drugs from pharmaceutical formulations. Samples were taken after 24 hours and 48 hours and the clenbuterol content was determined.
# [3] = Flux rate of clenbuterol through human skin depending on pH (FIG. 9); format: in vitro ADME; settings: pH range 6.0 to 8.5 versus higher and lower pH
# Excerpt: The flux rate of an active substance through the skin is defined as the quantity of active substance per unit of area of the skin and per unit of time and is normally given in [μg/cm^2.h].
# Curve B illustrates the water solubility of the substance depending on the pH value [mg/ml]. […] (The right-hand ordinate in FIG. 9 is shown logarithmically). [μg/cm^2. h]
# [4] = transdermal administration, prior practice; cited from earlier work
SMILES,citric acid concentration that brings about significant change in the surface pH of the skin [1],"diffusion rate, alkaline versus acid pH ([2]; pH 10.0 vs pH 3.5)","Clenbuterol Diffusion after 24 hours ([2]; pH-value 10.0 (5% Na2CO3), 24 hours, 5% clenbuterol in polymethacrylate)","Clenbuterol Diffusion after 48 hours ([2]; pH-value 10.0 (5% Na2CO3), 48 hours, 5% clenbuterol in polymethacrylate)",flux rate depending on pH [3],constancy of blood level values [4]
"O=C(O)CC(O)(CC(=O)O)C(=O)O [Citric acid, citric acid]",more than 1%,,,,,
CC(C)(C)NCC(O)c1cc(Cl)c(N)c(Cl)c1 (stereo not drawn) [Clenbuterol],,a higher diffusion rate is found at an alkaline pH than at an acid pH,7.8 μg/cm^2 and 11.44 μg/cm^2 and 9.84 μg/cm^2,21.7 μg/cm^2 and 27.3 μg/cm^2 and 24.2 μg/cm^2,"reaches a maximum in the pH range specified above, but decreases sharply at higher and lower pH levels; also recorded: reduced drastically outside the pH range specified",has not hitherto resulted in constant blood level values
